The text below walks through data of the NIST ThermoML archive (doi:10.1016/j.fluid.2006.12.010).

± gives the expanded uncertainty stated by the source.

The conditions of data set [1]: for mass density: 101.33 kPa.
The nature of data set [2]: refractive index (Na D-line) (dimensionless). The following applies: 101.33 kPa, Liquid, Standard Abbe refractometry.

Broadly, the mass density is mass per unit of volume. Broadly, the vapor or sublimation pressure is the pressure of vapour in equilibrium with the condensed phase. The refractive index is a measure of how strongly the sample bends light. On to `Cc1ccccc1O` [2-methylphenol], for which, in data set [1] (298.15 K, Liquid), the mass density is listed as 1046 ± 1.8 kg/m3. Moreover, the “vapor or sublimation pressure” value in data set [1] (463.55 K, Liquid) is 94.95 ± 5 kPa. Moreover, in data set [2] (298.15 K), the refractive index turned out to be 1.5467 ± 0.0008.
For `Cc1cccc(O)c1` [3-methylphenol], the mass density in data set [1] (298.15 K, Liquid) is on record as 1030 ± 1.8 kg/m3. The “vapor or sublimation pressure” value in data set [1] (473.55 K, Liquid) is 94.95 ± 5 kPa. Further, the refractive index in data set [2] (298.15 K) came to 1.5395 ± 0.0008.
Take `Cc1ccc(O)cc1` [4-methylphenol]: the mass density in data set [1] (298.15 K, Crystal) amounted to 1154 ± 2.1 kg/m3. The “vapor or sublimation pressure” value in data set [1] (475.35 K, Liquid) was 94.95 ± 5 kPa. The refractive index in data set [2] (298.15 K) was 1.5391 ± 0.0008.
For `Brc1ccccc1` [bromobenzene], the mass density in data set [1] (293.15 K, Liquid) amounted to 1488.2 ± 2.8 kg/m3. The “vapor or sublimation pressure” value in data set [1] (426.85 K, Liquid) came out at 94.95 ± 5 kPa. Also, the refractive index in data set [2] (293.15 K) is on record as 1.5571 ± 0.0008.
For the compound `CN(C)C=O` [dimethylformamide], the mass density in data set [1] (293.15 K, Liquid) amounted to 948.7 ± 1.6 kg/m3. For the same compound, in data set [1] (424.15 K, Liquid), the “vapor or sublimation pressure” value stood at 94.95 ± 5 kPa. The refractive index in data set [2] (293.15 K) came out at 1.4305 ± 0.0008.
Turning to `O=[N+]([O-])c1ccccc1` [nitrobenzene], the mass density in data set [1] (298.15 K, Liquid) was 1198 ± 2.2 kg/m3. Moreover, the “vapor or sublimation pressure” value in data set [1] (481.15 K, Liquid) worked out at 94.95 ± 5 kPa. The refractive index in data set [2] (298.15 K) was found to be 1.55 ± 0.0008.
